Measured values: patent US20230278972A1, “SUBSTITUTED HALOALKYL SULFONANILIDE HERBICIDES” (FMC Corporation, priority 2020, published 2023)

Legend:
rice (Oryza sativa) = experiment: Test B flooded paddy test, rice; conditions: 336 h, read-out: Plant response rating, Rice
[1] = tested on: pigweed (Amaranthus retroflexus); experiment: Test A postemergence, pigweed; format: in vivo; conditions: Amaranthus retroflexus, post-emergence, 240 h, Postemergence, 0 to 100 scale (0 no effect, 100 complete control), read-out: Plant response rating, Pigweed
Method in brief: (§1)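 Formulated with a surfactant in a non-phytotoxic solvent, compounds are applied to loam–sand pots, either to bare soil immediately after seeding (preemergence) or to seedlings of 2 to 10 cm bearing one to two leaves (postemergence).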

[2] = tested on: barnyardgrass (Echinochloa crus-galli); experiment: Test A preemergence, barnyardgrass; format: in vivo; conditions: Echinochloa crus-galli, pre-emergence, 240 h, Preemergence
Method in brief: as §1

kochia (Bassia scoparia) = experiment: Test A preemergence, kochia; format: in vivo; conditions: Bassia scoparia, pre-emergence, 240 h, Preemergence
Method in brief: as §1

[3] = tested on: Foxtail, Giant (giant foxtail, Setaria faberi); experiment: Test A preemergence, Foxtail, Giant; format: in vivo; conditions: Setaria faberi, pre-emergence, 240 h, Preemergence
Method in brief: as §1

Cc1cc(C)c(C(=O)N2CCC(F)(F)CC2)cc1NS(=O)(=O)C(F)(F)F [Compound 241, N-[5-[(4,4-Difluoro-1-piperidinyl)carbonyl]-2,4-dimethylphenyl]-1,1,1-trifluoromethanesulfonamide]
plant injury at 250 g/ha (rice (Oryza sativa)): 25%
pest or weed control at 125 g/ha ([1]; 125 g ai/ha): 60%
pest or weed control at 500 g/ha ([1]; 500 g ai/ha, visual injury approx. 10 days): 80%
pest or weed control at 125 g/ha ([2]; 125 g ai/ha, visual injury, 0 to 100 scale (0 no effect, 100 complete control), approx. 10 days, read-out: Plant response rating, Barnyardgrass): 100%
pest or weed control at 500 g/ha ([2]; 500 g ai/ha, visual injury on 0 to 100 scale (0 no effect, 100 complete control), approximately 10 days, read-out: Barnyardgrass plant response rating): 100%
pest or weed control at 125 g/ha (kochia (Bassia scoparia); 125 g ai/ha, visual injury, 0 to 100 scale (0 no effect, 100 complete control), approx. 10 days, read-out: Plant response rating, Kochia): 70%
pest or weed control at 500 g/ha (kochia (Bassia scoparia); 500 g ai/ha, visual injury on 0 to 100 scale (0 no effect, 100 complete control), approximately 10 days, read-out: Kochia plant response rating): 100%
pest or weed control at 125 g/ha ([3]; 125 g ai/ha, visual injury, 0 to 100 scale (0 no effect, 100 complete control), approx. 10 days, read-out: Plant response rating, Foxtail, Giant): 80%
pest or weed control at 500 g/ha ([3]; 500 g ai/ha, visual injury on 0 to 100 scale (0 no effect, 100 complete control), approximately 10 days, read-out: Foxtail, Giant plant response rating): 100%
